Source: ChEMBL document CHEMBL5500343, “Activity refinement of aryl amino acetamides that target the P. falciparum STAR-related lipid transfer 1 protein” (Eur J Med Chem, 2024)
In brackets after ≈: the same amount, converted by molar mass. Activity calls are given as the source filed them. The rule behind the calls is not given here.

What was measured:
Plasmodium falciparum [1] = test: Antimalarial activity against Plasmodium falciparum Dd2 assessed as reduction in parasite growth incubated for 72 hrs by [3H]-hypoxanthine incorporation assay; format: functional, organism-based
Plasmodium falciparum [2] = test: Antimalarial activity against DSM-265 resistant Plasmodium falciparum Dd2 harboring DHODH C276F mutant assessed as reduction in parasite growth incubated for 72 hrs by [3H]-hypoxanthine incorporation assay; format: functional, organism-based
Plasmodium falciparum [3] = test: Antimalarial activity against asexual blood stage Plasmodium falciparum Dd2-F6 assessed as minimum inoculum of resistance at 5 times IC50 measured for 35 days by SYBR Green I dye based flow cytometry; format: functional; details: time 35 day
Plasmodium falciparum [4] = test: Antimalarial activity against MMV006833 resistant Plasmodium falciparum 3D7 harboring START1 N330K mutant assessed as reduction in parasite growth incubated for 72 hrs by LDH assay; format: functional, organism-based; details: 3D7, 72 h
Plasmodium falciparum [5] = test: Antimalarial activity against chloroquine and mefloquine resistant Plasmodium falciparum NF54 assessed as reduction in parasite growth incubated for 72 hrs by [3H]-hypoxanthine incorporation assay; format: functional, organism-based
Plasmodium falciparum [6] = test: Antimalarial activity against asexual blood stage Plasmodium falciparum Dd2-B2 assessed as reduction in parasite growth measured for 60 days by flow cytometry; format: functional; details: Dd2-B2, 1440 h, time 60 day
Plasmodium falciparum [7] = test: Antimalarial activity against asexual blood stage Plasmodium falciparum Dd2-F6 assessed as minimum inoculum of resistance at 2.2 times IC50 measured for 35 days by SYBR Green I dye based flow cytometry; format: functional; details: time 35 day
[8] = Kinetic aqueous solubility of the compound in PBS at pH 7.4 incubated for 2 hr under shaking condition by shake flask based UV reader plate analysis; format: physicochemical; details: read-out: Kinetic_solubility
Plasmodium falciparum [9] = test: Antimalarial activity against KAF-156 resistant Plasmodium falciparum Dd2 harboring CARL I1139K mutant assessed as reduction in parasite growth incubated for 72 hrs by [3H]-hypoxanthine incorporation assay; format: functional, organism-based
[10] = Intrinsic clearance in human liver microsomes at 1 uM incubated upto 60 mins in presence of NADPH by LC-MS/MS analysis; format: ADME, Microsome; details: read-out: CLH
Plasmodium falciparum [11] = test: Antimalarial activity against chloroquine and mefloquine resistant Plasmodium falciparum K1 assessed as reduction in parasite growth incubated for 72 hrs by [3H]-hypoxanthine incorporation assay; format: functional, organism-based
Plasmodium falciparum [12] = test: Antimalarial activity against atovaquone resistant Plasmodium falciparum TM90-C2B assessed as reduction in parasite growth incubated for 72 hrs by [3H]-hypoxanthine incorporation assay; format: functional, organism-based
Plasmodium falciparum [13] = test: Antimalarial activity against MMV006833 resistant Plasmodium falciparum 3D7 assessed as reduction in parasite growth incubated for 72 hrs by LDH assay; format: functional, organism-based; details: 3D7, 72 h
Plasmodium falciparum [14] = test: Antimalarial activity against DDD-107498 resistant Plasmodium falciparum Dd2 harboring eEF2 Y86N mutant assessed as reduction in parasite growth incubated for 72 hrs by [3H]-hypoxanthine incorporation assay; format: functional, organism-based
[15] = Intrinsic clearance in rat hepatocyte measured per 10^6 cells at 1 uM incubated upto 90 mins by LC-MS/MS analysis; format: ADME, cell-based; details: rat hepatocytes, read-out: CLH
HepG2 = test: Cytotoxicity against human HepG2 cells assessed as reduction in cell viability incubated for 48 hrs by Cell Titer-Glo assay; format: functional, cell-based; details: HepG2, 48 h
Plasmodium falciparum [16] = test: Antimalarial activity against ELQ-300 resistant Plasmodium falciparum Dd2 harboring Cyt b I22L mutant assessed as reduction in parasite growth incubated for 72 hrs by [3H]-hypoxanthine incorporation assay; format: functional, organism-based
Plasmodium falciparum [17] = test: Antimalarial activity against MMV-048 resistant Plasmodium falciparum Dd2 harboring PI4K S743T mutant assessed as reduction in parasite growth incubated for 72 hrs by [3H]-hypoxanthine incorporation assay; format: functional, organism-based
[18] = Lipophilicity, LogD of compound in 1-Octanol and PBS at pH 7.4 at 7.5 uM incubated for 2 hrs shake flask method based LC-MS/MS analysis; format: physicochemical; details: 1-octanol/PBS
[19] = Binding affinity to recombinant Plasmodium falciparum START1 assessed as dissociation constant by isothermal titration calorimetry
Plasmodium falciparum [20] = test: Antimalarial activity against MMV006833 resistant Plasmodium falciparum 3D7 harboring START1 N309K mutant assessed as reduction in parasite growth incubated for 72 hrs by LDH assay; format: functional, organism-based; details: 3D7, 72 h
Plasmodium falciparum [21] = test: Antimalarial activity against asexual blood stage Plasmodium falciparum Dd2-B2 assessed as reduction in recrudescence measured for 60 days by flow cytometry; format: functional, organism-based; details: time 60.0 day
Plasmodium falciparum [22] = test: Antimalarial activity against chloroquine and mefloquine resistant Plasmodium falciparum RF12 assessed as reduction in parasite growth incubated for 72 hrs by [3H]-hypoxanthine incorporation assay; format: functional, organism-based
Plasmodium falciparum [23] = test: Antimalarial activity against chloroquine and mefloquine resistant Plasmodium falciparum 7G8 assessed as reduction in parasite growth incubated for 72 hrs by [3H]-hypoxanthine incorporation assay; format: functional, organism-based
Plasmodium falciparum [24] = test: Antimalarial activity against asexual blood stage Plasmodium falciparum 3D7 assessed as reduction in parasite growth incubated for 72 hrs by LDH assay; format: functional, organism-based; details: 3D7, 72 h
[25] = Toxicity in mouse infected with Plasmodium berghei ANKA assessed as change in body weight at 50 mg/kg,po bid administrated for 72 hrs and measured after 24 hrs post last dose; format: organism-based; details: in vivo
[26] = Drug concentration in Swiss mouse plasma at 50 mg/kg,po administration measured after 15 mins by LC-MS/MS analysis; format: ADME, organism-based
[27] = Apparent half life in Swiss mouse at 50 mg/kg,po administration measured for 4 to 24 hrs by LC-MS/MS analysis; format: ADME, organism-based; details: in vivo, time 4-24 hrs, read-out: t1/2(app) (converted)
[28] = Drug concentration in Swiss mouse plasma at 50 mg/kg,po administration measured upto 24 hrs by LC-MS/MS analysis; format: ADME, organism-based; details: in vivo
[29] = Drug concentration in Swiss mouse plasma at 50 mg/kg,po administration measured after 12 hrs by LC-MS/MS analysis; format: ADME, organism-based; details: in vivo
Plasmodium falciparum [30] = test: Binding affinity to recombinant Plasmodium falciparum START1 assessed as change in enthalpy at 10 uM by isothermal titration calorimetry
Plasmodium falciparum [31] = test: Binding affinity to recombinant Plasmodium falciparum START1 assessed as change in entropy at 10 uM by isothermal titration calorimetry
Plasmodium berghei [32] = test: Antimalarial activity against Plasmodium berghei ANKA infected in mouse assessed as reduction of parasitaemia at 50 mg/kg,po bid administrated for 72 hrs and measured after 24 hrs post last dose by Giemsa staining based microscopic analysis; format: functional, organism-based; details: time 96.0 hrs
[33] = Toxicity in Swiss mouse at 50 mg/kg,po administration measured upto 24 hrs by LC-MS/MS analysis; format: organism-based; details: in vivo
Plasmodium berghei [34] = test: Antimalarial activity against Plasmodium berghei ANKA infected in mouse assessed as reduction of parasitaemia at 30 mg/kg,po bid administrated for 72 hrs and measured after 24 hrs post last dose by Giemsa staining based microscopic analysis relative to control; format: functional; set-up: scale not given: the % may be the effect or the level left; details: time 96 hrs

Row | SMILES | EC50 (Plasmodium falciparum [1]) [µM] | EC50 (Plasmodium falciparum [2]) [µM] | EC50 (Plasmodium falciparum [5]) [µM] | solubility kinetic at 2 h [8] [µM] | EC50 (Plasmodium falciparum [9]) [µM] | microsomal CLint at 1 µM [10] [µL/min/mg] | EC50 (Plasmodium falciparum [11]) [µM] | EC50 (Plasmodium falciparum [12]) [µM] | EC50 (Plasmodium falciparum [14]) [µM] | hepatocyte CLint at 1 µM [15] [µL/min/1e6 cells] | EC50 (HepG2) [µM] | EC50 (Plasmodium falciparum [16]) [µM] | EC50 (Plasmodium falciparum [17]) [µM] | logD at 2 h, 7.5 µM [18] | Kd [19] [µM] | EC50 (Plasmodium falciparum [22]) [µM] | EC50 (Plasmodium falciparum [23]) [µM] | EC50 (Plasmodium falciparum [24]) [µM] | also measured
1 | Cc1cc(Nc2ccc(S(F)(F)(F)(F)F)cc2)n2nc(C(C)(F)F)nc2n1 [DSM-265] | 0.024 | 0.47 | – | – | – | – | – | – | – | – | – | – | – | – | – | – | – | – | Activity (Plasmodium falciparum [3]): 1.6 10^6No_unit
2 | CC(C)(Nc1ccc(Cl)c(S(=O)(=O)N2CCOCC2)c1)C(=O)Nc1ccc(F)c(Cl)c1 | 0.001 | 0.001 | 0.002 | 16 (≈ 7.85 µg/mL) | 0.001 | > 462 | 0.002 | 0.001 | 0.001 | > 92 | 31.5 | 0.001 | 0.001 | 3.9 | 0.01 | 0.001 | 0.001 | 0.005 | EC50 (Plasmodium falciparum [4]): 2.2 µM; EC90 (Plasmodium falciparum [6]): 0.0097 µM; Activity (Plasmodium falciparum [7]): 1.9 10^7No_unit; EC50 (Plasmodium falciparum [13]): 0.004 µM; EC50 (Plasmodium falciparum [20]): 3.2 µM; Activity (Plasmodium falciparum [21]): inactive
3 | CC(C)(Nc1ccc(Cl)c(S(=O)(=O)N2CCOCC2)c1)C(=O)Nc1cncc(Cl)c1 | – | – | – | 60 (≈ 28.4 µg/mL) | – | > 462 | – | – | – | 68 | > 40 | – | – | 3.2 | 0.014 | – | – | 0.015 | Activity [25]: Non-Toxic; concentration at 0.25 h [26]: ~1.2 µM; half-life [27]: 5.9 h; Drug uptake [28]: Active; Drug uptake [29]: Active; deltaH (Plasmodium falciparum [30]): -48.5 kJ/mol; -TdeltaS (Plasmodium falciparum [31]): 3.35 kJ/mol; Activity (Plasmodium berghei [32]): inactive; Activity [33]: Non-Toxic
4 | O=C(CNc1ccc(Cl)c(S(=O)(=O)N2CCOCC2)c1)Nc1ccc(F)c(Cl)c1 | 0.054 | 0.02 | 0.042 | 19 (≈ 8.78 µg/mL) | 0.026 | > 462 | 0.048 | 0.031 | 0.028 | > 92 | > 40 | 0.024 | 0.028 | 2.2 | – | 0.032 | 0.026 | 0.08 | –
5 | C[C@@H]1CC[C@H]2[C@@H](C)C(=O)O[C@@H]3O[C@@]4(C)CC[C@@H]1[C@]32OO4 [ARTEMISININ] | – | – | – | – | – | – | – | – | – | – | – | – | – | – | – | – | – | – | Activity (Plasmodium berghei [34]): >98%
